According to the supplement of paper PMC10307832:

How the values were obtained:
Assay in all cases: relative viability (nuclei count vs DMSO), 5 days (fraction); higher = more cells survive
[1] = compound: CC1CC(=O)N(C2=CN=C(N=C2N1C3CCCC3)NC4=C(C=C(C=C4)C(=O)NC5CCN(CC5)C)OC)C [NPK76-II-72-1] + CC(C)C[C@H](NC(=O)[C@H](Cc1ccccc1)NC(=O)c1cnccn1)B(O)O [Bortezomib] (partner 0.002 µM)
Outline: (§1)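 Five library-drug doses in √10 steps were combined with a fixed anchor-drug dose, or a single drug was given alone, by pin tool to lung cancer cell lines in 1536-well plates the day after seeding. Nuclei were stained and counted after 5 days. Relative viability is the nuclei count in treated wells over that in vehicle wells, taken as the median of duplicate plates.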

[2] = compound: CC1CC(=O)N(C2=CN=C(N=C2N1C3CCCC3)NC4=C(C=C(C=C4)C(=O)NC5CCN(CC5)C)OC)C [NPK76-II-72-1] + CS(=O)(=O)N1CCN(Cc2cc3nc(-c4cccc5[nH]ncc45)nc(N4CCOCC4)c3s2)CC1 [Pictilisib] (partner 1 µM)
Outline: as §1

[3] = compound: CC1CC(=O)N(C2=CN=C(N=C2N1C3CCCC3)NC4=C(C=C(C=C4)C(=O)NC5CCN(CC5)C)OC)C [NPK76-II-72-1] + O=C(c1cc(Cc2n[nH]c(=O)c3ccccc23)ccc1F)N1CCN(C(=O)C2CC2)CC1 [Olaparib] (partner 8 µM)
Outline: as §1

[4] = compound: CC[C@@H]1C(=O)N(C)c2cnc(Nc3ccc(C(=O)NC4CCN(C)CC4)cc3OC)nc2N1C1CCCC1 [BI-2536] + Cc1nc(Nc2ncc(C(=O)Nc3c(C)cccc3Cl)s2)cc(N2CCN(CCO)CC2)n1 [Dasatinib] (partner 0.075 µM)
Outline: as §1

Cell Line	relative viability ([1]; first compound 0.01 µM)	relative viability ([1]; first compound 0.03162 µM)	relative viability ([1]; first compound 0.1 µM)	relative viability ([1]; first compound 0.3162 µM)	relative viability ([1]; first compound 1 µM)	relative viability ([2]; first compound 0.01 µM)	relative viability ([2]; first compound 0.03162 µM)	relative viability ([2]; first compound 0.1 µM)	relative viability ([2]; first compound 0.3162 µM)	relative viability ([2]; first compound 1 µM)	relative viability ([3]; first compound 0.01 µM)	relative viability ([3]; first compound 0.03162 µM)	relative viability ([3]; first compound 0.1 µM)	relative viability ([3]; first compound 0.3162 µM)	relative viability ([3]; first compound 1 µM)	relative viability ([4]; first compound 0.01 µM)	relative viability ([4]; first compound 0.03162 µM)	relative viability ([4]; first compound 0.1 µM)	relative viability ([4]; first compound 0.3162 µM)	relative viability ([4]; first compound 1 µM)
NCI-H1703	0.255	0.316	0.323	0.318	0.348	0.257	0.224	0.298	0.283	0.254	0.473	0.54	0.381	0.33	0.431	–	–	–	–	–
NCI-H1437	0.473	0.445	0.425	0.409	0.494	0.479	0.441	0.451	0.427	0.477	0.626	0.666	0.613	0.624	0.624	0.318	0.365	0.247	0.173	0.108
SK-LU-1	0.931	1.15	0.829	1.23	1.42	0.532	0.648	0.514	0.645	0.584	0.432	0.49	0.475	0.511	0.587	0.176	0.143	0.108	0.113	0.099
H3255	0.841	0.642	0.647	–	1.11	0.449	0.449	0.476	0.251	0.481	0.531	0.552	0.561	0.483	0.592	0.315	0.237	0.235	0.27	0.25
Calu-6	0.992	1.03	1.16	0.894	1.06	0.894	1.01	0.953	0.757	1.05	0.561	0.625	0.65	0.62	0.559	–	–	–	–	–
NCI-H1792	1.06	0.961	0.829	0.879	1.07	0.353	0.285	0.26	0.29	0.286	–	0.362	0.357	0.419	0.742	0.762	0.916	0.885	0.498	0.34
SK-MES-1	–	–	–	–	–	0.429	0.384	0.295	0.376	0.318	0.646	0.787	0.794	0.746	0.728	0.415	0.336	0.134	0.115	0.136
EBC-1	0.543	0.63	0.608	0.562	0.713	0.404	0.432	0.536	0.347	0.456	0.697	0.734	0.712	0.7	0.812	–	–	–	–	–
NCI-H1623	–	–	–	–	–	–	–	–	–	–	–	–	–	–	–	0.485	0.519	0.571	0.595	0.281
NCI-H2342	–	–	–	–	–	–	–	–	–	–	0.393	0.377	0.457	0.43	0.535	0.326	0.313	0.267	0.213	0.227
SW 900	–	–	–	–	–	–	–	–	–	–	0.805	0.908	0.739	0.743	0.982	0.629	0.596	0.391	0.181	0.139
NCI-H1563	0.883	0.861	0.712	0.883	0.879	0.658	0.66	0.602	0.599	0.665	–	–	–	–	–	0.47	0.498	0.449	0.361	0.331
NCI-H1793	–	–	–	–	–	0.309	0.472	0.483	0.332	0.257	–	0.985	1.02	0.589	0.808	0.401	0.356	0.129	0.113	0.163
NCI-H1299	0.994	1.07	1.02	1.02	1	0.79	0.738	0.839	0.702	0.777	0.946	1.01	0.953	0.95	0.947	–	–	–	–	–
NCI-H358	–	–	–	–	–	0.352	0.364	0.334	0.3	0.332	0.58	0.665	0.598	–	0.686	0.157	0.171	0.0774	0.0602	0.0816
NCI-H1395	–	–	–	–	–	0.615	0.645	0.627	0.632	0.628	0.459	0.45	0.493	0.477	0.466	0.413	0.398	0.315	0.297	0.328
NCI-H522	–	–	–	–	–	–	–	–	–	–	0.586	0.661	0.703	–	0.607	0.687	0.989	0.607	0.341	0.334
A549	–	–	–	–	–	0.469	0.509	0.535	0.529	0.572	0.215	0.387	0.356	0.269	0.417	–	–	–	–	–
NCI-H1944	–	–	–	–	–	0.351	0.352	0.318	0.338	0.35	0.429	0.438	0.409	0.43	0.404	0.218	0.232	0.177	0.126	0.132
NCI-H1648	–	–	–	–	–	–	–	–	–	–	0.535	0.891	0.567	0.889	1.05	–	–	–	–	–
IA-LM	0.738	0.798	0.871	0.933	0.857	0.314	0.363	0.33	0.243	0.334	0.811	0.825	0.766	0.788	0.847	–	–	–	–	–
LK-2	–	–	–	–	–	0.582	0.567	0.636	–	0.582	0.775	0.716	0.679	0.565	0.725	0.268	0.313	0.215	0.147	0.137
HCC-44	0.836	0.877	0.87	0.843	1.03	0.542	0.911	0.624	0.587	0.685	0.955	1	0.946	0.935	0.989	–	–	–	–	–
